Measurements from US20260028326A1, “COMPOUND BASED ON ISOINDOLINE-SUBSTITUTED GLUTARIMIDE BACKBONE AND USE THEREOF” (GLUETACS THERAPEUTICS (SHANGHAI) CO., LTD., priority 2022, published 2026).

How the values were obtained:
[1] = target: human Cereblon WT GST-tagged protein (Homo sapiens (Human), UniProt Q96SW2); assay: CRBN-binding affinity, HTRF (CEREBLON BINDING kit)
Procedure, shortened: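 GST-tagged human WT Cereblon incubated with compound, then Thalidomide-Re tracer and anti-GST Eu antibody added. Displacement read by HTRF, reported as CRBN binding inhibition rate against blank control wells without protein.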

IKZF1 protein = IKZF1 protein (Homo sapiens (Human), UniProt Q13422+Q96SW2); assay: Western-blot assay of substrate protein degradation in hPBMC, IKZF1; type: cell-based; conditions: hPBMC cells, compound 500 nM, 24 hours, Western blot
IKZF1 protein, sequence (Q13422 whole entry): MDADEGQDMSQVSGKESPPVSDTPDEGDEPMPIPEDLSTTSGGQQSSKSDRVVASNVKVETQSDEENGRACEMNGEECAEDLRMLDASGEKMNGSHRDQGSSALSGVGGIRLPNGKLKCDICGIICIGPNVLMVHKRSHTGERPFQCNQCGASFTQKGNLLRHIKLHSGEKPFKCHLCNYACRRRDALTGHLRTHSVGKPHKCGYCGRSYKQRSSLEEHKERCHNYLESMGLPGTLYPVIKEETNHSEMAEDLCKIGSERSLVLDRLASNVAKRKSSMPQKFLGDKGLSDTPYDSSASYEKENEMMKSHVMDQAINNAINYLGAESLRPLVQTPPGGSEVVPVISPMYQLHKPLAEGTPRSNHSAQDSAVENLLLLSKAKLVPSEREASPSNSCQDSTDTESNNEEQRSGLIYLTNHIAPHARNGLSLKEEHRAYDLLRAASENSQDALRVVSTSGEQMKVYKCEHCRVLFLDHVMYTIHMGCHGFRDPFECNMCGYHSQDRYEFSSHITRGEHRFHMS
IKZF1 protein, sequence (Q96SW2 whole entry): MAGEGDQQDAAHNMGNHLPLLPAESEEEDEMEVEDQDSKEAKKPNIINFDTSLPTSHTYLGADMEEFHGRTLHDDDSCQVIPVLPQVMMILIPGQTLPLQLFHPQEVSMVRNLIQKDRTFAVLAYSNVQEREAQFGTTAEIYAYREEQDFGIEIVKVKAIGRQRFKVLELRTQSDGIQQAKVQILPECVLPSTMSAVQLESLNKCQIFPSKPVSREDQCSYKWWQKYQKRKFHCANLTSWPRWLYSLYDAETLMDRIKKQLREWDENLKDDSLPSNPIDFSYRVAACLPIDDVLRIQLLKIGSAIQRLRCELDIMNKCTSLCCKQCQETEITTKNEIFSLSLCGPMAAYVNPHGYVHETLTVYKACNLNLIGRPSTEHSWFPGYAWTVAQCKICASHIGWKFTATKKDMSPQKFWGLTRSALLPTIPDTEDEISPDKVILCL
IKZF1 protein, sequence (Q16531 whole entry partner): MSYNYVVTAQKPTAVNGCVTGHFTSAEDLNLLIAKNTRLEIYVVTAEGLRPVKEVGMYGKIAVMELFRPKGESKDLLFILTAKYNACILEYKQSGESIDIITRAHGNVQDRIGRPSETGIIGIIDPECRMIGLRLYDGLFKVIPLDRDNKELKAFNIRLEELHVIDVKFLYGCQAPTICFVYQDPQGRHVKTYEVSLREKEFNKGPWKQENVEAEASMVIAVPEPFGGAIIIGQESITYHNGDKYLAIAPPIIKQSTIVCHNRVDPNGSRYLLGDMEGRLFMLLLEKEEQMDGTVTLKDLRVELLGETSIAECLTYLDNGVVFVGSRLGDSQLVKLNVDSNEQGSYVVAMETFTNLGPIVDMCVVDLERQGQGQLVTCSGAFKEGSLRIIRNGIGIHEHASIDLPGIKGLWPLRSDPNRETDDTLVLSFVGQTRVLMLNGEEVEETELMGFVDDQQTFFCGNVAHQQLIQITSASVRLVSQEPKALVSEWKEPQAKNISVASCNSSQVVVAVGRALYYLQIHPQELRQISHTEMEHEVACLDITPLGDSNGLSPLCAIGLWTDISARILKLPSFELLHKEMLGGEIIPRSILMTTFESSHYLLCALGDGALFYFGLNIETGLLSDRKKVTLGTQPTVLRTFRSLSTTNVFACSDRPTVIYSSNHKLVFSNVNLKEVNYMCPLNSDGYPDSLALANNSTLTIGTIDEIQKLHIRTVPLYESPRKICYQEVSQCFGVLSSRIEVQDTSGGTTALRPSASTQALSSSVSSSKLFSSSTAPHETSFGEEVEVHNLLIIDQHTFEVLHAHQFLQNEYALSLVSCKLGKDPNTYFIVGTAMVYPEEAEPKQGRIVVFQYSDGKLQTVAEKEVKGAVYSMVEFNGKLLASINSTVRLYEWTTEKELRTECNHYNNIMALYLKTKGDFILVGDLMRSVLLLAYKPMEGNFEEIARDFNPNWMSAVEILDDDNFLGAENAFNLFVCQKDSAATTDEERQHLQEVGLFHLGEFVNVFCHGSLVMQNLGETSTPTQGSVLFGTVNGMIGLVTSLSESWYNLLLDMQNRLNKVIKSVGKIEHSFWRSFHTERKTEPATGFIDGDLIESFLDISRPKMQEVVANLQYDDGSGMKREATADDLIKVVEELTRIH
Protocol: (§1) After treating the cells with the compounds for 24 hours, the cells were collected and lysed using RIPA protein lysate containing phosphatase inhibitors. The lysate was then placed on ice for 30-60 minutes and centrifuged. The supernatant was aspirated as the extracted total cell protein. The protein concentration of the supernatant was determined using the conventional BCA (Bicinchoninic Acid) assay. The supernatant was then mixed with 4×SDS sample loading buffer, denatured at 95° C. for 5 minutes, and then subjected to SDS-PAGE electrophoresis on a polyacrylamide gel, followed by transfer to a nitrocellulose membrane (NC membrane). The membrane was blocked with blocking buffer at room temperature for 1-2 hours, and then antibody incubation and detection were carried out according to the antibody instructions provided by Cell Signaling Technology.
(§2) Half-Maximal Degradation Concentration value (the drug concentration required for degrading proteins by 50%, abbreviated as DC50) reads method: comparing the gray values of the Western blotting bands for the drug treatment with the gray values of the Western blotting band for the DMSO control, and reading the drug concentration range corresponding to the gray value of the Western blotting bands for the drug treatment which is equal to half of the gray value of the Western blotting band for the DMSO control.
(§3) DC50 value could also be calculated as follows: using software ImageJ to quantify the gray values of the Western blotting bands for the drug treatment, fitting the relationship curve between drug concentrations and gray values, and from the fitted curve, calculating the drug concentration corresponding to half of the gray value of the Western blotting band for the DMSO control.

IKZF3 protein = IKZF3 protein (Homo sapiens (Human), UniProt Q96SW2+Q9UKT9); assay: Western-blot assay of substrate protein degradation in hPBMC, IKZF3; type: cell-based; conditions: hPBMC cells, compound 500 nM, 24 hours, Western blot
IKZF3 protein, sequence (Q9UKT9 whole entry): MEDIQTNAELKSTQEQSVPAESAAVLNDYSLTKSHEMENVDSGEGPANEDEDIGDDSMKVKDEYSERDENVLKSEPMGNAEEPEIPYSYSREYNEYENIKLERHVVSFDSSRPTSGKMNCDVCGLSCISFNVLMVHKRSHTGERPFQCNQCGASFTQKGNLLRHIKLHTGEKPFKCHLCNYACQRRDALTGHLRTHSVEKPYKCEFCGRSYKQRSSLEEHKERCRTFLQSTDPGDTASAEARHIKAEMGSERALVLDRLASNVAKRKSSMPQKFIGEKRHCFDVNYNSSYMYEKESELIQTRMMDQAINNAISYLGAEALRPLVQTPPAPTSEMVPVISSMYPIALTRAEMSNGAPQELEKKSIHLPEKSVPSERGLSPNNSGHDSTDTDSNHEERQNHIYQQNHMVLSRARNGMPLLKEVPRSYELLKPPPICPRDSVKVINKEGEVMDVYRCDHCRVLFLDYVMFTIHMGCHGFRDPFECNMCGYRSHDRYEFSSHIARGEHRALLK
IKZF3 protein, sequence (Q96SW2 whole entry): as the sequence (Q96SW2 whole entry) above
IKZF3 protein, sequence (Q16531 whole entry partner): as the sequence (Q16531 whole entry partner) above
Protocol: as §1, §2, §3

GSPT1 protein = GSPT1 protein (Homo sapiens (Human), UniProt P15170+Q96SW2); assay: Western-blot assay of substrate protein degradation in hPBMC, GSPT1; type: cell-based; conditions: hPBMC cells, compound 500 nM, 24 hours, Western blot
GSPT1 protein, sequence (P15170 whole entry): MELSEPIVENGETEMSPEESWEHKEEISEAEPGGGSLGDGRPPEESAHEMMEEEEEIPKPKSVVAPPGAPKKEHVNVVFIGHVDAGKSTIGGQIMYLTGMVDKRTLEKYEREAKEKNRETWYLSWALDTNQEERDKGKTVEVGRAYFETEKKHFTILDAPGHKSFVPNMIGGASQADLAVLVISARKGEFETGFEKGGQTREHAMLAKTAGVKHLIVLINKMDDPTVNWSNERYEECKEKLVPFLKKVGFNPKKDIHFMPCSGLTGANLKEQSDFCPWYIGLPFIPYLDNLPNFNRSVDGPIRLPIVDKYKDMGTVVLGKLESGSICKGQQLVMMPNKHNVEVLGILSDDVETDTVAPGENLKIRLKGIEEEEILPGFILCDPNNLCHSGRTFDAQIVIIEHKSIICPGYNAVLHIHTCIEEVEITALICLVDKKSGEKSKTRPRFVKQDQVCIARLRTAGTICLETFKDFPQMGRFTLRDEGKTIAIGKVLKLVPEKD
GSPT1 protein, sequence (Q96SW2 whole entry): as the sequence (Q96SW2 whole entry) above
GSPT1 protein, sequence (Q16531 whole entry partner): as the sequence (Q16531 whole entry partner) above
Protocol: as §1, §2, §3

human Cereblon WT GST-tagged protein, sequence (Q96SW2 whole entry): as the sequence (Q96SW2 whole entry) above

| Structure (SMILES) | IC50 [1] | residual substrate protein level, IKZF1 (IKZF1 protein) | residual substrate protein level, IKZF3 (IKZF3 protein) | residual substrate protein level, GSPT1 (GSPT1 protein) |
| --- | --- | --- | --- | --- |
| CC1(C)CCC(C(=O)N2C3CC2CN(Cc2ccc4c(c2)CN(C2CCC(=O)NC2=O)C4=O)C3)=C(c2ccc(F)cc2)C1 (centres unmarked) [GT-05515, 3-(5-((6-(4′-fluoro-5,5-dimethyl-3,4,5,6-tetrahydro-[1,1′-biphenyl]-2-carbonyl)-3,6-diazabicyclo[3.1.1]heptan-3-yl)methyl)-1-oxoisoindolin-2-yl)piperidine-2,6-dione] | 1010 nM | B (B represents a residual substrate protein level of >50%) | B (B represents a residual substrate protein level of >50%) | A (A represents a residual substrate protein level of <50%) |
| CC1(C)CCC(CN2CCN(Cc3ccc4c(c3)CN(C3CCC(=O)NC3=O)C4=O)C(C(F)(F)F)C2)=C(c2ccc(F)cc2)C1 (centres unmarked) [GT-05846, 3-(5-((4-((4′-fluoro-5,5-dimethyl-3,4,5,6-tetrahydro-[1,1′-biphenyl]-2-yl)methyl)-2-(trifluoromethyl)piperazin-1-yl)methyl)-1-oxoisoindolin-2-yl)piperidine-2,6-dione] | 940 nM | B (B represents a residual substrate protein level of >50%) | B (B represents a residual substrate protein level of >50%) | A (A represents a residual substrate protein level of <50%) |
| CC1(C)CCC(CN2CC3CCC(C2)N3Cc2ccc3c(c2)CN(C2CCC(=O)NC2=O)C3=O)=C(c2ccc(F)cc2)C1 (centres unmarked) [GT-05400, 3-(5-((3-((4′-fluoro-5,5-dimethyl-3,4,5,6-tetrahydro-[1,1′-biphenyl]-2-yl)methyl)-3,8-diazabicyclo[3.2.1]octan-8-yl)methyl)-1-oxoisoindolin-2-yl)piperidine-2,6-dione] | 840 nM | B (B represents a residual substrate protein level of >50%) | B (B represents a residual substrate protein level of >50%) | A (A represents a residual substrate protein level of <50%) |
| O=C1CCC(N2Cc3cc(C(=O)N4CC5CCC4CN5Cc4ccccc4-c4ccc(Cl)cc4)ccc3C2=O)C(=O)N1 (centres unmarked) [GT-05622, 3-(5-(5-((4′-chloro-[1,1′-biphenyl]-2-yl)methyl)-2,5-diazabicyclo[2.2.2]octane-2-carbonyl)-1-oxoisoindolin-2-yl)piperidine-2,6-dione] | 910 nM | B (B represents a residual substrate protein level of >50%) | B (B represents a residual substrate protein level of >50%) | A (A represents a residual substrate protein level of <50%) |
| CC1(C)CCC(CN2CC3CC2CN3Cc2ccc3c(c2)CN(C2CCC(=O)NC2=O)C3=O)=C(c2ccc(F)cc2)C1 (centres unmarked) [GT-05401, 3-(5-((5-((4′-fluoro-5,5-dimethyl-3,4,5,6-tetrahydro-[1,1′-biphenyl]-2-yl)methyl)-2,5-diazabicyclo[2.2.1]heptan-2-yl)methyl)-1-oxoisoindolin-2-yl)piperidine-2,6-dione] | 590 nM | B (B represents a residual substrate protein level of >50%) | A (A represents a residual substrate protein level of <50%) | B (B represents a residual substrate protein level of >50%) |
| O=C1CCC(N2Cc3cc(C(=O)N4CCN(Cc5ccccc5-c5ccc(Cl)cc5)CC4)ccc3C2=O)C(=O)N1 (centres unmarked) [GT-05455, 3-(5-(4-((4′-chloro-[1,1′-biphenyl]-2-yl)methyl)piperazine-1-carbonyl)-1-oxoisoindolin-2-yl)piperidine-2,6-dione] | 1070 nM | B (B represents a residual substrate protein level of >50%) | B (B represents a residual substrate protein level of >50%) | A (A represents a residual substrate protein level of <50%) |
| O=C1CCC(N2Cc3cc(CN4CCN(Cc5cccc(-c6ccc[nH]6)c5)CC4)ccc3C2=O)C(=O)N1 (centres unmarked) [GT-05733, 3-(5-((4-(3-(1H-pyrrol-2-yl)benzyl)piperazin-1-yl)methyl)-1-oxoisoindolin-2-yl)piperidine-2,6-dione] | 210 nM | B (B represents a residual substrate protein level of >50%) | A (A represents a residual substrate protein level of <50%) | A (A represents a residual substrate protein level of <50%) |
| O=C1CCC(N2Cc3cc(C=C4CN(Cc5ccccc5-c5ccc(Cl)cc5)C4)ccc3C2=O)C(=O)N1 (centres unmarked) [GT-03881, 3-(5-((1-((4′-chloro-[1,1′-biphenyl]-2-yl)methyl)azetidin-3-ylidene)methyl)-1-oxoisoindolin-2-yl)piperidine-2,6-dione] | 480 nM | B (B represents a residual substrate protein level of >50%) | B (B represents a residual substrate protein level of >50%) | A (A represents a residual substrate protein level of <50%) |
| O=C1CCC(N2Cc3cc(CN4CCN(Cc5ccncc5-c5ccc(Cl)cc5)CC4)ccc3C2=O)C(=O)N1 (centres unmarked) [GT-04275, 3-(5-((4-((3-(4-chlorophenyl)pyridin-4-yl)methyl)piperazin-1-yl)methyl)-1-oxoisoindolin-2-yl)piperidine-2,6-dione] | 460 nM | A (A represents a residual substrate protein level of <50%) | A (A represents a residual substrate protein level of <50%) | A (A represents a residual substrate protein level of <50%) |
| CC1(C)CCC(C(=O)N2CCC3(CC2)CN(C(=O)c2ccc4c(c2)CN(C2CCC(=O)NC2=O)C4=O)C3)=C(c2ccc(Cl)cc2)C1 (centres unmarked) [GT-05657, 3-(5-(7-(4′-chloro-5,5-dimethyl-3,4,5,6-tetrahydro-[1,1′-biphenyl]-2-carbonyl)-2,7-diazaspiro[3.5]nonane-2-carbonyl)-1-oxoisoindolin-2-yl)piperidine-2,6-dione] | 1170 nM | B (B represents a residual substrate protein level of >50%) | B (B represents a residual substrate protein level of >50%) | B (B represents a residual substrate protein level of >50%) |
| CC1(C)CCC(C(=O)N2CC(=Cc3ccc4c(c3)CN(C3CCC(=O)NC3=O)C4=O)C2)=C(c2ccc(Cl)cc2)C1 (centres unmarked) [GT-05420, 3-(5-((1-(4′-chloro-5,5-dimethyl-3,4,5,6-tetrahydro-[1,1′-biphenyl]-2-carbonyl)azetidin-3-ylidene)methyl)-1-oxoisoindolin-2-yl)piperidine-2,6-dione] | 730 nM | B (B represents a residual substrate protein level of >50%) | B (B represents a residual substrate protein level of >50%) | A (A represents a residual substrate protein level of <50%) |
